{"source": "patent US20170258967A1", "about": "“COMPOSITIONS AND METHODS FOR DELIVERING AN AGENT TO A WOUND” (UNIVERSITY OF MEMPHIS RESEARCH FOUNDATION, priority 2014, published 2017)", "origin": "cited, not measured here", "test_system": "S. aureus"}
{"smiles": "CCCCCCC/C=C\\C(=O)O", "note": "[Cis-2-decenoic acid, Cis-2-Decenoic Acid]", "values": [{"measurement": "effect on S. aureus growth and biofilm formation", "value": "inhibit S. aureus growth and biofilm formation"}]}
